Here are results for 19 compounds from paper PMC3025325, “Identification of a κ-opioid agonist as a potent and selective lead for drug development against human African trypanosomiasis” (Biochemical Pharmacology, 2010).

The subject of assay [1] is T. brucei. Briefly: DMSO tolerance of the resazurin assay, T. brucei. It counts as cell-based. Here is the method: (§1) DMSO was serially diluted across a 96-well plate in 200 μl of the appropriate medium. For T. brucei, 100 μl aliquots were then transferred to a plate containing 100 μl cells at 2 × 10^3 ml^−1. Human fibroblasts were plated at 2 × 10^4 ml^−1 in 100 μl of medium and incubated overnight to allow cells to adhere before the addition of medium containing DMSO (100 μl) over a range of concentrations. Parasites and mammalian cells were then incubated for 3 days, after which 20 μl 500-μM resazurin was added to each well. Plates were incubated for a further 4 h before measuring fluorescence as above.

Assay [2] has as its system human fibroblasts (MRC5). Briefly: DMSO tolerance of the resazurin assay, human fibroblasts. It counts as cell-based. Here is the method: as §1
On the technique in general: Resazurin is reduced to fluorescent resorufin, in cell work by metabolically active cells.

The test system of assay [3] is bloodstream forms of Trypanosoma brucei. Briefly: Resazurin cell viability assay, EC50 determinations against T. brucei. It counts as cell-based, T. b. brucei (strain 427).
The subject of assay [4] is MRC5 cells. Briefly: Resazurin cell viability counter-screen, EC50 determinations against mammalian cells. In kind it is cell-based, human. The note with it: for EC50: read-out: EC50 vs. MRC5.
The test system of assay [5] is T. brucei.
Assay [6] relates to T. brucei. Briefly: microbe, parasite or virus in culture. The following applies: Trypanosoma brucei, read-out: EC50 by direct counting of cell growth.
Setting [7] is: Trypanosoma brucei, 72 h, LOPAC hits (library screening), 3 days incubation, mean of 3 determinations weighted to standard error, read-out: EC50 vs. T. brucei.
The mark [8] stands for this setting: Trypanosoma brucei, 72 h, read-out: EC50 vs. T. brucei.
The mark [9] stands for this setting: Trypanosoma brucei, 72 h, read-out: EC50 of standard drugs against T. brucei.
The mark [10] stands for this setting: read-out: EC50 of standard drugs against T. brucei.

By EC50 is commonly meant the concentration giving half of the maximal effect.

Where a name gives a salt, the structure may show the parent alone. Read-outs that look alike come from different tables or passages of the source.

Turning to `C[S+](C)[O-]` [DMSO], the entries for the “IC50 of DMSO” value in assay [1] (3 days incubation) and in assay [2] (3 days incubation) were 0.80 ± 0.06 % (v/v) and 1.04 ± 0.08 % (v/v), respectively. Further, the Attenuation of fluorescence in assay [1] (DMSO 0.5%) turned out to be 20%; in assay [2] (DMSO 0.5%) it was 15%.
Turning to `CC[C@H]1CN2CCc3cc(OC)c(OC)cc3[C@@H]2C[C@@H]1C[C@H]1NCCc2cc(OC)c(OC)cc21` [Emetine dihydrochloride hydrate], the EC50 came out at 7.9 ± 0.53 nM in assay [3] (setting [7]) and 30 ± 3.1 nM in assay [4] (Homo sapiens, MRC5, 72 h, 3 days incubation, mean of 4 determinations weighted to standard error).
Turning to `CC(=O)[C@]1(O)Cc2c(O)c3c(c(O)c2[C@@H](O[C@H]2C[C@H](N)[C@H](O)[C@H](C)O2)C1)C(=O)c1ccccc1C3=O` [Idarubicin], the EC50 in assay [3] (setting [8]) is 20 ± 1.5 nM; in assay [4] (Homo sapiens, MRC5, 72 h), 78 ± 29 nM. The compound also yielded a Selectivity in assay [4] of 3.9.
Consider `CC[C@H](C)C(=O)O[C@H]1CCC=C2C=C[C@H](C)[C@H](CC[C@@H]3C[C@@H](O)CC(=O)O3)[C@H]21` [Mevastatin], for which the EC50 in assay [3] (setting [7]) worked out at 940 ± 50 nM; in assay [4] (Homo sapiens, MRC5, 72 h) it was 2000 ± 360 nM. The same compound showed a Selectivity in assay [4] of 2.2.
For the compound `O=C1c2c(O)ccc(O)c2C(=O)c2c(NCCNCCO)ccc(NCCNCCO)c21` [Mitoxantrone], the EC50 worked out at 2.4 ± 0.2 nM in assay [3] (setting [8]) and 110 ± 37 nM in assay [4] (Homo sapiens, MRC5, 72 h). Besides, the Selectivity in assay [4] was 46.
For the compound `N=C(N)c1ccc(OCCCCCOc2ccc(C(=N)N)cc2)cc1` [Pentamidine isethionate], in assay [3], the “EC99 (calculated/predicted from EC50 and Hill slope)” value is 37 nM. The EC50 in assay [3] (setting [9]) stood at 8.1 ± 0.54 nM; in assay [3] (setting [10]) it was 8 nM. Also, the Selectivity in assay [4] is given as 3400. Further, in assay [5], the “Effect on T. brucei culture growth” value is recorded as “cytocidal effect”. In assay [5], the “Time for cell density to drop below the limit of detection (1 × 10^3 cells ml−1)” value is no more than 40 h.
For `O=c1[nH]c2ccccc2n1C1CCN(CCCC(c2ccc(F)cc2)c2ccc(F)cc2)CC1` [Pimozide], the EC50 in assay [3] (setting [8]) is 340 ± 19 nM. Besides, the Selectivity in assay [4] was determined as 41.
For `CC(C)[C@H](CO)Nc1nc(Nc2cccc(Cl)c2)c2ncn(C(C)C)c2n1` [Purvalanol A] the same measures were 820 ± 55 nM and 12.
`CCN(CC)CCCC(C)Nc1c2ccc(Cl)cc2nc2ccc(OC)cc12` (stereo not drawn) [Quinacrine dihydrochloride]: the EC50 is 380 ± 13 nM in assay [3] (setting [8]) and 1900 ± 440 nM in assay [4] (Homo sapiens, MRC5, 72 h). This compound also gave a Selectivity in assay [4] of 5.0.
Turning to `Br.CN1Cc2sccc2C(c2ccc(O)c(O)c2)C1` (stereo not drawn) [SKF 89145 hydrobromide, 4-(3,4-Dihydroxyphenyl)-6-methyl-4,5,6,7-tetrahydrothieno[2,3-c]pyridine HBr], the EC50 in assay [3] (setting [8]) was 610 ± 44 nM; in assay [4] (Homo sapiens, MRC5, 72 h), 2900 ± 200 nM. The Selectivity in assay [4] is reported as 4.7.
For `C[n+]1cc2c3c(ccc2c2ccc4cc5c(cc4c21)OCO5)OCO3` [Sanguinarine chloride] the same measures were 240 ± 17 nM, 1400 ± 350 nM and 5.8.
Take `CCCCCCCCCCCCC/C=C/[C@@H](O)[C@@H](N)CO` [Sphingosine]: the EC50 in assay [3] (setting [8]) was found to be 820 ± 78 nM; in assay [4] (Homo sapiens, MRC5, 72 h), 4600 ± 2500 nM. This compound had a Selectivity in assay [4] of 5.7.
For `Cc1ccc(C(=O)Nc2ccc(S(=O)(=O)O)c3cc(S(=O)(=O)O)cc(S(=O)(=O)O)c23)cc1NC(=O)c1cccc(NC(=O)Nc2cccc(C(=O)Nc3cc(C(=O)Nc4ccc(S(=O)(=O)O)c5cc(S(=O)(=O)O)cc(S(=O)(=O)O)c45)ccc3C)c2)c1` [Suramin hexasodium], the EC50 was 20.1 ± 1.1 nM in assay [3] (setting [9]); less than 70 nM in assay [3] (setting [8]); 68 ± 3.5 nM in assay [3] (read-out: EC50 vs. T. brucei); greater than 50000 nM in assay [4] (Homo sapiens, MRC5, 72 h). For the same compound, in assay [4], the Selectivity is on record as greater than 710. Moreover, the “Selectivity / specificity for T. brucei over human fibroblasts” value in assay [4] was greater than 700 fold.
Turning to `CC(=O)O[C@H]1C(=O)[C@@]2(C)[C@H]([C@H](OC(=O)c3ccccc3)[C@]3(O)C[C@H](OC(=O)[C@H](O)[C@@H](NC(=O)c4ccccc4)c4ccccc4)C(C)=C1C3(C)C)[C@]1(OC(C)=O)CO[C@@H]1C[C@@H]2O` [Taxol], the EC50 in assay [3] (setting [8]) came to 3.3 ± 0.071 nM; in assay [4] (Homo sapiens, MRC5, 72 h) it was 6.6 ± 9.8 nM. This compound returned a Selectivity in assay [4] of 2.
As for `CC[C@]1(O)C[C@@H]2CN(CCc3c([nH]c4ccccc34)[C@@](C(=O)OC)(c3cc4c(cc3OC)N(C)[C@H]3[C@@](O)(C(=O)OC)[C@H](OC(C)=O)[C@]5(CC)C=CCN6CC[C@]43[C@@H]65)C2)C1.O=S(=O)(O)O` [Vinblastine sulfate salt], the EC50 in assay [3] (read-out: EC50 vs. T. brucei) came to 94 ± 6 nM; in assay [4], 780 ± 910 nM. This compound also yielded a Selectivity in assay [4] of 8.3.
Regarding `CC[C@]1(O)C[C@H]2CN(CCc3c([nH]c4ccccc34)[C@@](C(=O)OC)(c3cc4c(cc3OC)N(C=O)[C@H]3[C@@](O)(C(=O)OC)[C@H](OC(C)=O)[C@]5(CC)C=CCN6CC[C@]43[C@@H]65)C2)C1` [Vincristine sulfate], the EC50 in assay [3] (setting [7]) amounted to 30 ± 1 nM; in assay [4] (Homo sapiens, MRC5, 72 h), 0.6 ± 1 nM. In assay [4], this compound returned a Selectivity of 0.02.
With `NCCCC(N)(C(=O)O)C(F)F` (stereo not drawn) [eflornithine, difluoromethylornithine], the “EC99 (calculated from EC50 and Hill slope)” value in assay [3] was 77000 nM. Also, the EC50 in assay [3] (setting [9]) was 22400 ± 1100 nM; in assay [3] (setting [10]) it was 22000 nM; in assay [6] it was 17100 ± 100 nM. Further, in assay [5] (10 × EC50), the “Time after which cell growth was arrested” value came out at 30 h. Besides, the “Effect on T. brucei culture growth” value in assay [5] (10 × EC50, 3 days) is “cytostatic effect”.
Consider Dequalinium analogue, C-14 linker, for which the EC50 in assay [3] (read-out: EC50 vs. T. brucei) was determined as 70 ± 4.6 nM. In assay [4], the Selectivity stood at 14.
On to Oligomycin A, for which, in assay [3] (read-out: EC50 vs. T. brucei), the EC50 came to 150 ± 3.1 nM. In addition, in assay [4], the Selectivity is listed as 120 and the “Selectivity / specificity for T. brucei over human fibroblasts” value is given as “greater than 100 fold”.
